Results published in patent US20220372024A1, “CRYSTALLINE FORMS OF ENTRECTINIB” (Johnson Matthey Public Limited Company, priority 2019, published 2022).
Read-outs that look alike come from different tables or passages of the source.

Legend:
Format in all cases: physicochemical
[1] = Intrinsic dissolution rate (IDR), Sirius inForm; conditions: pH 2.8, 37° C., 3 mm disc
Excerpt: Data were collected on a Sirius inForm instrument fitted with a dual UV Dip Probe attachment and Ag/AgCl combination pH electrode. The electrode was calibrated using the four plus parameters derived from a blank titration. The base titrant was standardised by titration with TRIS. 0.5 M HCl and NaOH aqueous solutions were used as the acid and base titrants respectively for the testing. Stirring was facilitated by a dual overhead stirrer to allow thorough mixing within the vessel, and media was introduced via a capillary bundle attached to a dispensing bank comprised of six precision dispensing units. A Peltier heating jacket was used to maintain the temperature of the titration vessel. Discs were introduced to the vessel via the tablet picker housed in the probe arm, after the desired temperature of the media had been reached. Sirius inForm Assay Design, Control and Refine software were used to design, run and refine data respectively. The reference sample was prepared as a 10.1 mM stock solution in DMSO. MEC data was then collected using UV metric method with initial addition of 100 μl of DMSO stock. UV Spectra were then collected from low to high pH (pH 2-12) in two titrations using a 5 mm path length. The MEC data set was then imported into the dissolution data files in order to convert the UV absorbance measured to concentration. The concentration range for UV data collected was […]. MEC data were collected in the dissolution media (36 ml of ISA water+4 ml of GI Tract buffer) and at 37° C. to match the dissolution experiments. Ca. 8-20 mg of the sample was compressed in a 3 mm disc recess, under 100 kg for 2 minutes, with greaseproof paper on the compression base, to form non-disintegrating discs. The discs were then plugged with a bung so that only one surface was exposed to the media during analysis and transferred to the Sirius inForm dissolution apparatus. […] The IDR was calculated based on the surface area of the 3 mm disc recess used (7.07 mm^2 surface area). […]

[2] = Storage stability of the crystalline form (XRPD diffractogram and chemical purity); conditions: 28 days storage at 40° C./75% RH and 25° C./97% RH
Excerpt: Entrectinib anhydrate (Form A) was also characterised as follows: • TGA and DSC analysis (see FIG. 2). • GVS isotherm analysis (see FIG. 3). • XRPD analysis pre- (bottom) and post- (top) GVS (see FIG. […] 5). The XRPD overlays illustrate that entrectinib anhydrate (Form A) is stable under the storage conditions.
Entrectinib anhydrate (Form C) was also characterised as follows: • TGA and DSC analysis (see FIG. 9). • GVS isotherm analysis (see FIG. 10). • XRPD analysis before (bottom) and after (top) the GVS experiment (see FIG. […] 12). The XRPD overlays illustrate that entrectinib anhydrate (Form C) is stable under the storage conditions (see FIG. 12).
Entrectinib monohydrate (Form G) was also characterised as follows: • TGA and DSC analysis (see FIG. 20). • GVS isotherm analysis (see FIG. 21). • XRPD analysis pre- (bottom) and post- (top) GVS (see FIG. […] 23). The XRPD overlays illustrate that entrectinib monohydrate (Form G) is stable under the storage conditions.

[3] = Four hour solubility in buffered media (HPLC quantitation); conditions: for solubility at 4 h: 25 °C, thermodynamic from solid, read-out: Solubility after 4 hours; for Solubility after 4 hours: 25° C.
Experimental: Sufficient sample was suspended in 1.0 ml media for a maximum anticipated concentration of ca. 10 mg/ml of the free form of the compound. The resulting suspensions were then shaken at 25° C./750 rpm for 4 hours. The pH of the sample solutions was checked after 1 hour and adjusted as necessary with 0.2 M NaOH to ensure that the desired pH was maintained throughout (±0.2). After equilibration, the appearance was noted, and the final pH of the saturated solution was measured. Samples were then filtered through a glass C′ fibre filter (Particle retention size 1.2 μm). Samples suspended in pH 1.2 buffer were diluted 10 times with pH 1.2 buffer, all other samples were analysed undiluted. Quantitation was by HPLC with reference to a standard solution of approximately 0.15 mg/ml. Different volumes of the standard, diluted and undiluted sample solutions were injected. The solubility was calculated using the peak areas determined by integration of the peak found at the same retention time as the principal peak in the standard injection. [table] [table]

[4] = Gravimetric vapour sorption (GVS), XRPD after analysis; conditions: 25° C., 0-90% RH
Excerpt: Hygroscopicity of a solid material may be determined by means of gravimetric vapour sorption (GVS) analysis, sometimes known by dynamic vapour sorption (DVS) analysis. The experiment subjects a sample material which is held in a fine wire basket on a microbalance within a temperature and humidity controlled environment (chamber). Using the software, the collected data can then be processed to determine the isotherm points at the increment ranges specified during the experiment and show the overall water uptake of the material. Sorption isotherms were obtained using a SMS DVS Intrinsic moisture sorption analyser, controlled by DVS Intrinsic Control software. The sample temperature was maintained at 25° C. by the instrument controls. The humidity was controlled by mixing streams of dry and wet nitrogen, with a total flow rate of 200 ml/min. The relative humidity was measured by a calibrated Rotronic probe (dynamic range of 1.0-100% RH), located near the sample. The weight change, (mass relaxation) of the sample as a function of % RH was constantly monitored by a microbalance (accuracy ±0.005 mg). Typically, 5-30 mg of sample was placed in a tared mesh stainless steel basket under ambient conditions. The sample was loaded and unloaded at 40% RH and 25° C. (typical room conditions). A moisture sorption isotherm was performed as outlined below (2 scans per complete cycle). The standard isotherm was performed at 25° C. at 10% RH intervals over a 0-90% RH range. Typically, a double cycle (4 scans) was carried out. Data analysis was carried out within Microsoft Excel using the DVS Analysis Suite. [table]

[5] = pH 1.2 hydrochloric acid buffer

SMILES	IDR [1]	Stability under the storage conditions (XRPD overlays) [2]	solubility at 4 h ([3]; hydrochloric acid buffer, pH 1.2, simulated gastric fluid, pH 1.2 hydrochloric acid buffer) [µg/mL]	solubility at 4 h ([3]; pH 2.8 buffer, pH 2.8, aqueous buffer, pH 2.8 buffer) [µg/mL]	Solubility after 4 hours ([3]; pH 4.5 acetate buffer)	Solubility after 4 hours ([3]; pH 6.8 phosphate buffer)	Solubility after 4 hours ([3]; pH 7.5 phosphate buffer)	Change in form after GVS (XRPD after analysis) [4]	Solubility after 4 hours [3, 5]	Solubility after 4 hours ([3]; pH 2.8 buffer)
CN1CCN(c2ccc(C(=O)Nc3n[nH]c4ccc(Cc5cc(F)cc(F)c5)cc34)c(NC3CCOCC3)c2)CC1 [Form A, N-[5-[(3,5-difluorophenyl)methyl]-1H-indazol-3-yl]-4-(4-methylpiperazin-1-yl)-2-(oxan-4-ylamino)benzamide]	pH 2.8: 2.5 mg/min/cm^2	stable	> 5000	> 5000	pH 4.5->5.0 mg/ml	pH 6.8-0.0024 mg/ml	pH 7.5-0.0013 mg/ml	unchanged	–	–
CN1CCN(c2ccc(C(=O)Nc3n[nH]c4ccc(Cc5cc(F)cc(F)c5)cc34)c(NC3CCOCC3)c2)CC1 [Form G, N-[5-[(3,5-difluorophenyl)methyl]-1H-indazol-3-yl]-4-(4-methylpiperazin-1-yl)-2-(oxan-4-ylamino)benzamide]	pH 2.8: 1.6 mg/min/cm^2	stable	–	–	pH 4.5-0.10 mg/ml	pH 6.8-0.0002 mg/ml	pH 7.5-0.0002 mg/ml	substantially unchanged	pH 1.2->5.0 mg/ml	pH 2.8->5.0 mg/ml
CN1CCN(c2ccc(C(=O)Nc3n[nH]c4ccc(Cc5cc(F)cc(F)c5)cc34)c(NC3CCOCC3)c2)CC1 [Form C, N-[5-[(3,5-difluorophenyl)methyl]-1H-indazol-3-yl]-4-(4-methylpiperazin-1-yl)-2-(oxan-4-ylamino)benzamide]	pH 2.8: 2.5 mg/min/cm^2	stable	–	–	pH 4.5-4.0 mg/ml	pH 6.8-0.0013 mg/ml	pH 7.5-0.0006 mg/ml	unchanged	pH 1.2-4.3 mg/ml	pH 2.8->5.0 mg/ml
